# Test results published in patent US20060111258A1, “Solid N-acylalanine or a salt thereof” (AJINOMOTO CO., INC., priority 2003, published 2006).
# Legend:
# [1] = Evaluation of caking during preservation; format: physicochemical; settings: solid N-acylalanine salt; powder 25 g under 770 g spindle, 50° C., 24 hours, visual
# Description: 3. Evaluation of Caking During Preservation […] […] 6. Evaluation of Caking During Preservation: The measurement apparatus and measurement conditions were the same as in the aforementioned 3.
# [2] = Evaluation of moisture absorbability during preservation (automatic vapor absorption measurement); format: physicochemical; settings: average equilibrated moisture at humidity 70% RH, measurement temperature 25° C.
# Procedure: 2. Evaluation of Moisture Absorbability During Preservation: The moisture absorbability was measured under the following measurement conditions and using an automatic vapor absorption measurement apparatus “BELSORP18” manufactured by BELL JAPAN, INC. Measurement conditions: X air thermostatic tank temperature: 50° C.; X measurement temperature: 25° C.; X MAX intake pressure: 0.9×Ps (Ps: saturated vapor pressure at measurement temperature); X MIN exhaust pressure: 0.1×Ps (Ps: saturated vapor pressure at measurement temperature); and X equilibration time: 5 min. Evaluation: Average equilibrated moisture of less than 5% at humidity 70% RH is ⊙, not less than 5% to less than 10% is ◯, not less than 10% to less than 15% is A, not less than 15% is x.
smiles,measurement,setting,value
"CCCCCCCCCCCC(=O)NC(C)C(=O)[O-].[K+] (racemic) [Example 1, lauroyl-DL-alanine potassium salt]",caking during preservation,[1],⊚
same,moisture absorbability during preservation,[2],⊚
